“And” between values parts separate entries of the source, which are not always exact repeats. Equal values may be shown once.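 1) Cells in 96-well plates. 2) Compound, 48 h, 5 concentrations. 3) Linear interpolation between surrounding doses. 4) Unreached endpoint = highest concentration. TGI denotes the concentration required for complete inhibition of growth.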
Key:
Assay in all cases: DTP human tumour cell line panel, 48 h
[1] = tested on: HS 578T breast
[2] = tested on: RPMI-8226 leukemia
[3] = tested on: K-562 leukemia
[4] = tested on: LOX IMVI melanoma
[5] = tested on: SK-OV-3 ovarian
[6] = tested on: HCC-2998 colon
[7] = tested on: SF-539 CNS
[8] = tested on: T-47D breast
[9] = tested on: HL-60(TB) leukemia
[10] = tested on: NCI/ADR-RES ovarian
[11] = tested on: PC-3 prostate
[12] = tested on: MDA-MB-435
[13] = tested on: SK-MEL-2 melanoma
[14] = tested on: NCI-H460 lung
[15] = tested on: CAKI-1 renal
[16] = tested on: SNB-75 CNS
[17] = tested on: OVCAR-8 ovarian
[18] = tested on: HOP-92 NSCLC
[19] = tested on: MALME-3M melanoma

## Cc1nc(Nc2ccccc2Cl)sc1C(=O)CC(=O)C(=O)Nc1c(Cl)cccc1Cl
[1]
  TGI: > 100 µM
[2]
  TGI: > 100 µM
[3]
  TGI: > 100 µM
[4]
  TGI: 85.8 µM
[5]
  TGI: > 100 µM
[6]
  TGI: > 100 µM
[7]
  TGI: 83 µM
[8]
  TGI: 71.6 µM
[9]
  TGI: 33.6 µM
[10]
  TGI: 54.1 µM
[11]
  TGI: > 100 µM
[12]
  TGI: 50 µM
[13]
  TGI: 56.2 µM
[14]
  TGI: > 100 µM
[15]
  TGI: > 100 µM
[16]
  TGI: 88.6 µM
[17]
  TGI: 96.7 µM
[18]
  TGI: > 100 µM

## CC(=O)Nc1ccc(NC(=O)c2c(Cl)c(Cl)c(Cl)c(Cl)c2-c2nc3ccccc3[nH]2)cc1
[1]
  TGI: > 100 µM
[2]
  TGI: 71 µM
[3]
  TGI: > 100 µM
[19]
  TGI: > 100 µM
[5]
  TGI: > 100 µM
[6]
  TGI: > 100 µM
[7]
  TGI: > 100 µM
[8]
  TGI: > 100 µM
[9]
  TGI: 67.6 µM
[11]
  TGI: > 100 µM
[12]
  TGI: > 100 µM
[14]
  TGI: > 100 µM
[15]
  TGI: > 100 µM
[16]
  TGI: > 100 µM
[17]
  TGI: > 100 µM
[18]
  TGI: 71.7 µM

## OC1(c2ccccc2)CC2CCC(C1)N2CCCC1(c2ccc(F)cc2)OCCO1 (centres undefined)
[1]
  TGI: > 100 µM
[2]
  TGI: > 100 µM
[3]
  TGI: > 100 µM
[19]
  TGI: > 100 µM
[4]
  TGI: > 100 µM
[5]
  TGI: > 100 µM
[7]
  TGI: > 100 µM
[8]
  TGI: > 100 µM
[9]
  TGI: > 100 µM
[10]
  TGI: 29.1 µM
[11]
  TGI: > 100 µM
[12]
  TGI: > 100 µM
[13]
  TGI: > 100 µM
[15]
  TGI: > 100 µM
[16]
  TGI: > 100 µM
[17]
  TGI: 30.2 µM

## O=C(O)CN1CCN2CCOCCOCCN(CC1)CCN(CC(=O)O)CC2
[1]
  TGI: > 100 µM
[2]
  TGI: > 100 µM
[3]
  TGI: > 100 µM
[19]
  TGI: > 100 µM
[4]
  TGI: > 100 µM
[5]
  TGI: > 100 µM
[7]
  TGI: > 100 µM
[8]
  TGI: > 100 µM
[10]
  TGI: > 100 µM
[11]
  TGI: > 100 µM
[12]
  TGI: > 100 µM
[13]
  TGI: > 100 µM
[14]
  TGI: > 100 µM
[15]
  TGI: > 100 µM
[16]
  TGI: > 100 µM
[17]
  TGI: > 100 µM
[18]
  TGI: > 100 µM

## CC(=O)OCC(OC(C)=O)C(OC(C)=O)C(OC(C)=O)C(C=NN(C(C)=O)S(=O)(=O)c1ccc(/C=C2\NC(=O)N(C)C2=O)cc1)OC(C)=O (centres undefined)
[1]
  TGI: > 100 µM
[2]
  TGI: 49.8 µM and 65.8 µM
[3]
  TGI: > 100 µM and 57.1 µM
[19]
  TGI: 37.5 µM and 52.1 µM
[4]
  TGI: 33 µM and 66 µM
[5]
  TGI: > 100 µM
[6]
  TGI: 32 µM and > 100 µM
[7]
  TGI: 56.5 µM
[8]
  TGI: 76.1 µM and 91.3 µM
[10]
  TGI: > 100 µM
[11]
  TGI: > 100 µM
[12]
  TGI: > 100 µM
[13]
  TGI: 58 µM and > 100 µM
[14]
  TGI: 50.3 µM and 56.5 µM
[15]
  TGI: > 100 µM
[16]
  TGI: > 100 µM
[17]
  TGI: > 100 µM and 86.7 µM

## C=CCN1C(=O)/C(=C/c2ccc(OC)cc2)NC1=S
[1]
  TGI: > 100 µM
[2]
  TGI: > 100 µM
[3]
  TGI: > 100 µM
[4]
  TGI: > 100 µM
[5]
  TGI: > 100 µM
[6]
  TGI: > 100 µM
[7]
  TGI: > 100 µM
[8]
  TGI: > 100 µM
[9]
  TGI: 3.81 µM
[10]
  TGI: > 100 µM
[11]
  TGI: > 100 µM
[12]
  TGI: > 100 µM
[13]
  TGI: > 100 µM
[14]
  TGI: > 100 µM
[15]
  TGI: > 100 µM
[16]
  TGI: > 100 µM
[17]
  TGI: > 100 µM
[18]
  TGI: > 100 µM

## CNC(=O)c1n[nH]nc1Sc1c([N+](=O)[O-])ncn1C
[1]
  TGI: > 100 µM
[3]
  TGI: > 100 µM
[4]
  TGI: > 100 µM
[5]
  TGI: > 100 µM
[6]
  TGI: > 100 µM
[7]
  TGI: > 100 µM
[8]
  TGI: > 100 µM
[10]
  TGI: > 100 µM
[11]
  TGI: > 100 µM
[12]
  TGI: > 100 µM
[13]
  TGI: > 100 µM
[14]
  TGI: > 100 µM
[15]
  TGI: > 100 µM
[17]
  TGI: > 100 µM
[18]
  TGI: > 100 µM

## CC(C)(C)OC(=O)c1cnc(Cl)cn1
[1]
  TGI: > 100 µM
[2]
  TGI: > 100 µM
[3]
  TGI: > 100 µM
[19]
  TGI: > 100 µM
[4]
  TGI: 62.9 µM
[5]
  TGI: > 100 µM
[7]
  TGI: > 100 µM
[8]
  TGI: > 100 µM
[10]
  TGI: > 100 µM
[11]
  TGI: > 100 µM
[12]
  TGI: > 100 µM
[13]
  TGI: 80.6 µM
[14]
  TGI: > 100 µM
[15]
  TGI: 16.6 µM
[16]
  TGI: > 100 µM
[17]
  TGI: > 100 µM
[18]
  TGI: 18.4 µM

## Cc1ccc(C)n1-n1c(Cc2ccccc2)n[nH]c1=O
[1]
  TGI: > 100 µM
[2]
  TGI: > 100 µM
[3]
  TGI: > 100 µM
[19]
  TGI: > 100 µM
[4]
  TGI: > 100 µM
[5]
  TGI: > 100 µM
[6]
  TGI: > 100 µM
[8]
  TGI: > 100 µM
[10]
  TGI: > 100 µM
[11]
  TGI: > 100 µM
[12]
  TGI: > 100 µM
[13]
  TGI: > 100 µM
[14]
  TGI: > 100 µM
[15]
  TGI: > 100 µM
[16]
  TGI: > 100 µM
[17]
  TGI: > 100 µM

## Nc1nc(N)c(NC(=O)CCCO)c(=O)[nH]1
[1]
  TGI: > 100 µM
[2]
  TGI: > 100 µM
[3]
  TGI: > 100 µM
[19]
  TGI: > 100 µM
[4]
  TGI: > 100 µM
[5]
  TGI: > 100 µM
[6]
  TGI: > 100 µM
[7]
  TGI: > 100 µM
[8]
  TGI: > 100 µM
[10]
  TGI: > 100 µM
[11]
  TGI: > 100 µM
[12]
  TGI: > 100 µM
[13]
  TGI: > 100 µM
[14]
  TGI: > 100 µM
[15]
  TGI: > 100 µM
[16]
  TGI: > 100 µM
[17]
  TGI: > 100 µM
[18]
  TGI: > 100 µM

## c1ccc2c(c1)nc1n2CCCn2ccnc2-1
[1]
  TGI: > 100 µM
[2]
  TGI: > 100 µM
[3]
  TGI: > 100 µM
[19]
  TGI: > 100 µM
[4]
  TGI: > 100 µM
[5]
  TGI: 9.03 µM
[7]
  TGI: > 100 µM
[8]
  TGI: > 100 µM
[9]
  TGI: 0.597 µM
[10]
  TGI: > 100 µM
[11]
  TGI: > 100 µM
[13]
  TGI: > 100 µM
[14]
  TGI: > 100 µM
[16]
  TGI: > 100 µM
[17]
  TGI: > 100 µM
[18]
  TGI: > 100 µM

## CCOC(=O)C(/C=N\C(=S)Nc1ccc(Cl)c(Cl)c1)=C(/O)c1ccccc1
[1]
  TGI: 10.5 µM
[19]
  TGI: > 100 µM
[4]
  TGI: > 100 µM
[5]
  TGI: > 100 µM
[6]
  TGI: 60.4 µM
[8]
  TGI: > 100 µM
[9]
  TGI: > 100 µM
[10]
  TGI: > 100 µM
[11]
  TGI: > 100 µM
[12]
  TGI: 93.5 µM
[13]
  TGI: 77.1 µM
[14]
  TGI: > 100 µM
[15]
  TGI: 84.9 µM
[16]
  TGI: 55.9 µM
[17]
  TGI: > 100 µM
